From US20110230478A1 (Bayer ScienceCrop AG, priority 2008, published 2011)
Structures can show the parent of a compound that is named as a salt.

Experiment: logP by HPLC on reversed-phase columns (C 18), EEC Directive 79/831 Annex V.A8
Format: physicochemical
Settings: method marker [a]

| logP | SMILES |
| --- | --- |
| 2.54[a] | CS(=O)(=O)c1ccc(Nc2ncc(Cl)c(NC3CCCCC3)n2)cc1 [Example 267] |

Same assay, conditions: method marker [a]; footnote not given

| SMILES | logP |
| --- | --- |
| C=CCNc1nc(Nc2ccccc2)ncc1Cl.Cl [Example 66] | 1.68[a] |
| Cl.OCCNc1nc(Nc2ccccc2)ncc1Cl [Example 53] | 0.86[a] |
| CCN(CC)c1nc(Nc2ccccc2)ncc1Cl [Example 60] | 2.29[a] |
| CCCCNc1nc(Nc2ccccc2)ncc1Cl [Example 32] | 2.12[a] |
| COC(=O)c1ccc(Nc2ncc(Cl)c(N(C)C)n2)cc1 [Example 39] | 2.47[a]; |

Other lines, results leading:

| logP | SMILES |
| --- | --- |
| 1.53[a] | CCC(CO)Nc1nc(Nc2cccc(C(C)=O)c2)ncc1Cl (stereo not shown) [Example 21] |
| 2.18[a] | COCC(C)Nc1nc(Nc2ccc(S(=O)(=O)N3CCOCC3)cc2)ncc1Cl (stereo not shown) [Example 63] |
| 2.59[a] | CSC[C@H](C)Nc1nc(Nc2ccc(S(=O)(=O)N(C)C)cc2)ncc1Cl [Example 30] |
| 2.04[a] | CCC(C)Nc1nc(Nc2ccccc2)ncc1Cl.Cl (stereo not shown) [Example 65] |
| 1.94[a] | COCC(C)Nc1nc(Nc2cc(OC)cc(OC)c2)ncc1Cl (stereo not shown) [Example 14] |

Same assay, conditions: method marker [b] (compound 257: pH2.7)

| logP | SMILES |
| --- | --- |
| 1.7[b] | CC(C)Nc1nc(Nc2cccc(Cn3cccn3)c2)ncc1Cl [Example 298] |
| 2.55[b] | CCCN(C)c1nc(Nc2ccccc2)ncc1Cl [Example 272] |
| 2.47[b] | Brc1cnc(Nc2ccccc2)nc1NC1CCCC1 [Example 253] |
| 1.84[b] | CC(C)Nc1nc(Nc2cccc(CC#N)c2)ncc1Br [Example 246] |
| 2.26[b] | COc1cc(Nc2ncc(Cl)c(NC3CCCCC3)n2)cc(OC)c1OC [Example 261] |
| 1.89[b] | CC(C)Nc1nc(Nc2ccccc2)ncc1Br [Example 247] |
| 2.14[b] | C[Si](C)(C)CNc1nc(Nc2ccccc2)ncc1Cl [Example 287] |
| 3[b] | CC(C)CN(C)c1nc(Nc2ccccc2)ncc1Cl [Example 270] |
| 2.28[b] | Clc1cnc(Nc2ccccc2)nc1NC1CCCC1 [Example 254] |
| 1.75[b] | CSCCNc1nc(Nc2ccccc2)ncc1Cl [Example 293] |

Same assay, conditions: method marker [b]; footnote not given; compound 68 value matches logP (pH 2.3)

| SMILES | logP |
| --- | --- |
| CN(C)c1nc(Nc2ccccc2)ncc1C#N [Example 44] | 2.36[b] |
| CSCCNc1nc(Nc2ccccc2)ncc1C#N [Example 67] | 2.6[b] |

The remaining lines, values ahead:

| logP | SMILES |
| --- | --- |
| 4.08[b] | COCC(C)Nc1nc(Nc2cc(Cl)cc(Cl)c2)ncc1Cl (stereo not shown) [Example 94] |
| 3.22[b] | COCC(C)Nc1nc(Nc2ccc(C(F)(F)F)cc2)ncc1Cl (stereo not shown) [Example 82] |
| 2.13[b] | COCC(C)Nc1nc(Nc2cccc(SC)c2)ncc1Cl (stereo not shown) [Example 101] |
| 1.11[b] | COCC(C)Nc1nc(Nc2cccc(NC(C)=O)c2)ncc1Br (stereo not shown) [Example 80] |
| 4.08[b] | COCC(C)Nc1nc(Nc2ccc3c(c2)OC(F)(F)C(F)(F)O3)ncc1Br (stereo not shown) [Example 75] |
| 1.56[b] | COCC(C)Nc1nc(Nc2ccc(OC)cc2)ncc1Cl (stereo not shown) [Example 86] |
| 1.48[b] | COCC(C)Nc1nc(Nc2ccc(N(C)C(C)=O)cc2)ncc1Cl (stereo not shown) [Example 99] |
| 2.18[b] | CCOc1cccc(Nc2ncc(Br)c(NC(C)COC)n2)c1 (stereo not shown) [Example 116] |
| 2.46[b] | COCC(C)Nc1nc(Nc2cc(OC)c(OC)c(OC)c2)ncc1C(F)(F)F (stereo not shown) [Example 24] |
| 1.75[b] | COCC(C)Nc1nc(Nc2ccc3sc(C)nc3c2)ncc1Cl (stereo not shown) [Example 105] |
| 2.26[b] | COCC(C)Nc1nc(Nc2cccc(C#N)c2)ncc1Br (stereo not shown) [Example 108] |
| 1.8[b] | COCC(C)Nc1nc(Nc2ccc(F)cc2)ncc1Cl (stereo not shown) [Example 69] |
| 2.99[b] | COCC(C)Nc1nc(Nc2ccc(SC)c(Cl)c2)ncc1Br (stereo not shown) [Example 111] |
| 1.97[b] | COCC(C)Nc1nc(Nc2ccc3c(c2)CCC3=O)ncc1Cl (stereo not shown) [Example 103] |
| 4.23[b] | COCC(C)Nc1nc(Nc2ccc(OC(F)(F)F)c(Cl)c2)ncc1Br (stereo not shown) [Example 118] |
| 1.87[b] | COCC(C)Nc1nc(Nc2ccc(-c3cscn3)cc2)ncc1Cl (stereo not shown) [Example 90] |
| 3.99[b] | COCC(C)Nc1nc(Nc2ccc(OC(F)(F)F)c(Cl)c2)ncc1Cl (stereo not shown) [Example 98] |
| 1.75[b] | COCC(C)Nc1nc(Nc2cccc(CC(=O)OC)c2)ncc1Cl (stereo not shown) [Example 93] |

Same assay, conditions: method marker [c]

| logP | SMILES |
| --- | --- |
| 4.35[c]; | CCCN(C)c1nc(Nc2ccccc2)ncc1Cl [Example 272] |
| 3.13[c]; | CC(C)Nc1nc(Nc2cccc(CC#N)c2)ncc1Br [Example 246] |
| 3.7[c]; | CC(C)Nc1nc(Nc2ccccc2)ncc1Br [Example 247] |

Same assay, conditions: method marker [c]; footnote not given

| logP | SMILES |
| --- | --- |
| 3.3[c] | COC(=O)c1ccc(Nc2ncc(Cl)c(N(C)C)n2)cc1 [Example 39] |

Same assay, conditions: pH 2.3, logP [a]

| chromatographic logP | SMILES |
| --- | --- |
| 3.16 | CC(C)N(C)c1nc(Cl)ncc1Cl [Example V-11, 2,5-dichloro-N-methyl-N-(propan-2-yl)pyrimidine-4-amine] |
| 2.26 | COCC(C)Nc1nc(Cl)ncc1Br (stereo not shown) [Example V-2, 5-bromo-2-chloro-N-(3-methoxypropan-2-yl)pyrimidine-4-amine] |
| 1.27 | N#CCNc1nc(Cl)ncc1Cl [Example V-8, [(2,5-dichloropyrimidin-4-yl)amino]acetonitrile] |
| 2.94 | CCC(C)Nc1nc(Cl)ncc1Cl (stereo not shown) [Example V-14, 2,5-dichloro-N-(butan-2-yl)pyrimidine-4-amine] |
| 2.46 | CC(C)Nc1nc(Cl)ncc1Cl [Example V-9, 2,5-dichloro-N-(propan-2-yl)pyrimidine-4-amine] |

Same assay, conditions: reversed-phase HPLC column (C 18), method marker [c]; footnote not given; read-out: logP

| chromatographic logP | SMILES |
| --- | --- |
| 3.05 | COCC(C)Nc1nc(Nc2ccc(C(=O)OC)cc2)ncc1Cl (stereo not shown) [Example 38, Methyl 4-({5-chloro-4-[(1-methoxypropan-2-yl)amino]pyrimidin-2-yl}amino)benzene-carboxylate hydrochloride] |

Same assay, conditions: reversed-phase HPLC column (C 18), pH 2.3, method marker [a]; footnote not given; read-out: logP

| chromatographic logP | SMILES |
| --- | --- |
| 2.31 | COCC(C)Nc1nc(Nc2ccc(C(=O)OC)cc2)ncc1Cl (stereo not shown) [Example 38, Methyl 4-({5-chloro-4-[(1-methoxypropan-2-yl)amino]pyrimidin-2-yl}amino)benzene-carboxylate hydrochloride] |

Same assay, conditions: reversed-phase HPLC column (C 18), pH 2.3, pH 2.3, 0.1% aqueous phosphoric acid and acetonitrile; read-out: logP [a]

| chromatographic logP | SMILES |
| --- | --- |
| 2.66 | N#Cc1cnc(Nc2ccccc2)nc1Cl [VIII-3, 4-Chloro-2-(phenylamino)pyrimidine-5-carbonitrile] |
| 3.22 | CC(C)(C)Nc1nc(Cl)ncc1Cl [Example V-17, N-t-butyl-2,5-dichloropyrimidine-4-amine] |
| 2.75 | CCCNc1nc(Cl)ncc1Cl [Example V-21, 2,5-dichloro-N-propylpyrimidine-4-amine] |
| 3.62 | CCC(C)N(C)c1nc(Cl)ncc1Cl (stereo not shown) [Example V-15, N-(butan-2-yl)-2,5-dichloro-N-methylpyrimidine-4-amine] |
| 2.31 | COCC(C)Nc1nc(Nc2ccc(C(=O)OC)cc2)ncc1Cl (stereo not shown) [Example 38, Methyl 4-({5-chloro-4-[(1-methoxypropan-2-yl)amino]pyrimidin-2-yl}amino)benzene-carboxylate hydrochloride] |
| 3.8 | CCN(c1nc(Cl)ncc1Cl)C(C)C [Example V-30, 2,5-dichloro-N-ethyl-N-isopropylpyrimidine-4-amine] |
| 2.03 | CN1CCN(Cc2cccc([N+](=O)[O-])c2)C1=O [1-methyl-3-(3-nitrobenzyl)imidazolidin-2-one] |
| 2.98 | C=CCN(C)c1nc(Cl)ncc1Cl [Example V-33, 2,5-dichloro-N-methyl-N-(prop-2-en-1-yl)pyrimidine-4-amine] |
| 2.63 | CC(NS(=O)(=O)Cc1cccc([N+](=O)[O-])c1)c1ccccc1 (stereo not shown) [IV-3, N-(1-phenylethyl)-1-(3-nitrophenyl)methanesulphonamide] |

Same assay, conditions: reversed-phase HPLC column (C 18), pH 2.7, LC-MS, pH 2.7, 0.1% aqueous formic acid and acetonitrile; read-out: logP [b]

| chromatographic logP | SMILES |
| --- | --- |
| 5.08 | CC(C)c1cccc(Nc2ncc(C(F)(F)F)c(NC3CCCC3)n2)c1 [Example 257, N^4-Cyclopentyl-N^2-[3-(propan-2-yl)phenyl]-5-(trifluoromethyl)pyrimidine-2,4-diamine] |

Same assay, conditions: reversed-phase HPLC column (C 18), pH 2.7, method marker [b] (compound 257: pH2.7); read-out: logP

| chromatographic logP | SMILES |
| --- | --- |
| 5.08 | CC(C)c1cccc(Nc2ncc(C(F)(F)F)c(NC3CCCC3)n2)c1 [Example 257, N^4-Cyclopentyl-N^2-[3-(propan-2-yl)phenyl]-5-(trifluoromethyl)pyrimidine-2,4-diamine] |

Same assay, conditions: values marked [a]; pH 2.3

| logP | SMILES |
| --- | --- |
| 1.62[a]; | N#CCNc1nc(Nc2ccccc2)ncc1Cl [Example 220] |

Same assay, conditions: values marked [b]; footnote not given

| SMILES | logP |
| --- | --- |
| CCOCCN(C)c1nc(Nc2ccccc2)ncc1Br [Example 237] | 2.55[b] |
| COCC(Nc1nc(Nc2ccccc2)ncc1Br)C(C)C (stereo not shown) [Example 224] | 2.55[b] |
| CC(=O)Nc1ccc(Nc2ncc(Cl)c(NC(C)C)n2)cc1 [Example 189] | 1.32[b] |
| CCN(C)c1nc(Nc2cccc(SC)c2)ncc1Cl [Example 239] | 2.99[b] |
| CC(C)Nc1nc(Nc2ccc(NC(=O)C(C)(C)C)cc2)ncc1Cl [Example 188] | 1.81[b] |
| CC(C)Nc1nc(Nc2ccc(NC(=O)C3(C)CC3)cc2)ncc1Cl [Example 194] | 1.71[b] |

The remaining lines, values ahead:

| logP | SMILES |
| --- | --- |
| 1.46[b] | CNC(=O)c1ccc(Nc2ncc(Br)c(NC(C)COC)n2)cc1 (racemic) [Example 127] |
| 1.93[b] | CC(C)Nc1nc(Nc2ccc(NC(=O)C(F)(F)F)cc2)ncc1Cl [Example 193] |
| 2.23[b] | COCC(C)Nc1nc(Nc2ccc(C(=O)CC#N)cc2)ncc1Br (stereo not shown) [Example 121] |
| 1.98[b] | COCC(C)Nc1nc(Nc2cccc(C)c2)ncc1Cl (stereo not shown) [Example 225] |
| 1.78[b] | COCC(C)Nc1nc(Nc2cccc(NC(=O)C3(C)CC3)c2)ncc1Cl (stereo not shown) [Example 162] |
| 1.86[b] | COc1cccc(Nc2ncc(Cl)c(NC(C)C)n2)c1 [Example 182] |
| 1.34[b] | COCC(C)Nc1nc(Nc2ccc(O)c(F)c2)ncc1Cl (stereo not shown) [Example 160] |
| 1.37[b] | COCC(C)Nc1nc(Nc2ccc(C)c(NC(C)=O)c2)ncc1Cl (stereo not shown) [Example 167] |
| 1.63[b] | COc1ccc(Nc2ncc(Cl)c(NC(C)C)n2)cc1 [Example 183] |
| 1.8[b] | COCC(C)Nc1nc(Nc2ccc(C(=O)Nc3ccccc3)cc2)ncc1Cl (racemic) [Example 141] |
| 1.44[b] | COc1cc(Nc2ncc(Cl)c(NC(C)C)n2)ccc1NC(C)=O [Example 181] |
| 1.59[b] | COCC(C)Nc1nc(Nc2ccc(NC(=O)C(C)C)cc2)ncc1Cl (stereo not shown) [Example 169] |
| 1.66[b] | CCN(C(C)=O)c1ccc(Nc2ncc(Cl)c(NC(C)C)n2)cc1 [Example 191] |
| 2.06[b] | COCC(C)Nc1nc(Nc2ccc(C(=O)NC(C)(C)C)cc2)ncc1Cl (racemic) [Example 137] |
| 1.78[b] | COCC(C)Nc1nc(Nc2ccc(NC(=O)C(C)(C)C)cc2)ncc1Cl (racemic) [Example 146] |

Same assay, conditions: values marked [c]; footnote not given

| logP | SMILES |
| --- | --- |
| 3.95[c]; | CCOCCN(C)c1nc(Nc2ccccc2)ncc1Br [Example 237] |
| 2.2[c] | N#CCNc1nc(Nc2ccccc2)ncc1Cl [Example 220] |
| 4.32[c]; | CCN(C)c1nc(Nc2cccc(SC)c2)ncc1Cl [Example 239] |
